The record followed here is patent US12679843B2, “Pyrrolopyrimidine amines as complement inhibitors” (BioCryst Pharmaceuticals, Inc., priority 2020, dated 2026).

This assay addresses Factor D (Homo sapiens, UniProt P00746). Nature of the assay: Factor D esterolytic assay (Z-Lys-SBzl thioester substrate, DTNB, 405 nm). As to conditions: substrate Z-Lys-SBzl 1.29 mM, 100 mM HEPES, 500 mM NaCl, pH 7.5, 10% DMSO, tested a minimum of three times. It counts as biochemical. How it is done: The IC50 value of a compound (i.e., the concentration of the compound that inhibits 50% of the enzymatic activity) was calculated according to the procedure reported in U.S. Pat. No. 6,653,340 B1, e.g., column 74 (incorporated by reference).
Specifically, the compounds were dissolved in a stock solution of DMSO at 10.0 or 100 mM. A portion of this stock solution was added to assay buffer in a final volume of 50 μL. Controls included buffer alone and enzyme solutions to which DMSO was added. Substrate was added to the reaction wells immediately or after incubation at room temperature. The reaction rates were measured spectrophotometrically by the generation of product at 405 nm for 600 sec. Background absorbance at 690 nm was measured and subtracted from the absorbance at 405 nm for each well.
The reaction rate for enzyme alone was compared to the rate of enzyme in the presence of inhibitor and the percent inhibition was calculated as shown below: Percent Inhibition=[Rate without inhibitor−Rate with inhibitor)/(Rate without inhibitor)]−100 Factor D Esterolytic Assay:
An established esterolytic assay for the measurement of Factor D activity and inhibition of Factor D activity was used (Kam, C. M.; McRae, B. J.; Harper, J. W.; Niemann, M. A.; Volanakis, J. E.; Powers, J. C. Human complement proteins D. C2, and B Active site mapping with peptide thioester substrates. J Biol. Chem. 1987, 262, 3444-3451). For this assay Z-Lys-SBzl, 1.29 mM (Kim, S.; Narayana, S. V. L; Volanakis, J. E. Mutational analysis of the substrate binding site of human complement Factor D. Biochemistry, 1994, 33, 14393-14399) was used as the substrate for Factor D ([…]). Hydrolysis of this compound by Factor D liberated a free sulfhydryl group which is then reacted with 5,5′-dithiobis(2-nitrobenzoic acid) producing an intense yellow color (Habeeb, A. F. S. A. Reaction of protein sulfhydryl groups with Ellman's Reagent. Methods in Enzymol. 1976, 25, 457-464). The assays were performed in 96 well microtiter plates and rates of hydrolysis were monitored at 405 nm on a Biotek Synergy H1 plate reader. Hydrolysis rates were reported as change in mOD/min. The assay was conducted in 100 mM HEPES, 500 mM NaCl, pH 7.5 containing 10% DMSO in a final volume of 50 μL per well.
An IC50, a compound concentration which inhibits 50% of the enzymatic activity, was calculated. Compounds in the examples were tested a minimum of three times.

Chain of Factor D (P00746 26-253): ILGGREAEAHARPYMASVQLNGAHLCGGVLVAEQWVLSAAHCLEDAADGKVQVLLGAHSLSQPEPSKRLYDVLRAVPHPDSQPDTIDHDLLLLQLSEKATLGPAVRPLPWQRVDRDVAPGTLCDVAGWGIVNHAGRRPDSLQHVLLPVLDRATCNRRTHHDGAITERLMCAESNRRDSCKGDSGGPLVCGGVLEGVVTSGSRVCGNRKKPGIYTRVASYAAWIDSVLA

Turning to `CC1(C)CC(O)CC(NC(=O)[C@@H]2C[C@H]3C[C@H]3N2C(=O)Cn2cnc3c(N)ncnc32)C1` (mixture of isomers) [Compound 106b, (1R,3S,5R)-2-(2-(6-amino-9H-purin-9-yl)acetyl)-N-(5-hydroxy-3,3-dimethylcyclohexyl)-2-azabicyclo[3.1.0]hexane-3-carboxamide], the IC50 (commonly the concentration that gives 50% inhibition) was over 1000 nM. As for `Cc1ccc2c(c1)c1c(N)ncnc1n2C(C)C(=O)N1[C@@H]2C[C@@H]2C[C@H]1C(=O)Nc1cccc(Br)n1` (single isomer, unassigned) [Compound 22c], the figure is over 1000 nM. Regarding `Cc1ccc2c(c1)c1c(N)ncnc1n2C(C)C(=O)N1[C@@H]2C[C@@H]2C[C@H]1C(=O)Nc1cccc(Br)n1` (single isomer, unassigned) [Compound 22d], the IC50 was over 1000 nM. For the compound `Nc1ncnc2c1cc1n2C(C(=O)N2[C@@H](C(=O)Nc3cccc(Br)n3)C[C@@H]3C[C@@H]32)Oc2ccccc2-1` (single isomer, unassigned) [Compound 293a], the IC50 fell in the range of 100 to 1000 nM. On to `Nc1ncnc2c1cc1n2C(C(=O)N2[C@@H](C(=O)Nc3cccc(Br)n3)C[C@@H]3C[C@@H]32)Oc2ccccc2-1` (single isomer, unassigned) [Compound 293b], for which the IC50 was under 100 nM. Consider `Cc1ccc(Br)nc1NC(=O)[C@@H]1C[C@H]2C[C@H]2N1C(=O)Cn1c2ccccc2c2c(N)ncnc21` [Compound 1e, (1R,3S,5R)-2-(2-(4-amino-9H-pyrimido[4,5-b]indol-9-yl)acetyl)-N-(6-bromo-3-methylpyridin-2-yl)-2-azabicyclo[3.1.0]hexane-3-carboxamide], for which the IC50 is under 100 nM. `Cc1ccc(Br)nc1NC(=O)[C@@H]1C[C@H]2C[C@H]2N1C(=O)Cc1ccc2c(N)ncnn12` [Compound 2d, (1R,3S,5R)-2-(2-(4-aminopyrrolo[2,1-f][1,2,4]triazin-7-yl)acetyl)-N-(6-bromo-3-methylpyridin-2-yl)-2-azabicyclo[3.1.0]hexane-3-carboxamide]: the IC50 is over 1000 nM. With `Cc1ccc(Br)nc1NC(=O)[C@@H]1C[C@@H](F)CN1C(=O)Cn1c2ccccc2c2c(N)ncnc21` [Compound 3b, (2S,4R)-1-(2-(4-amino-9H-pyrimido[4,5-b]indol-9-yl)acetyl)-N-(6-bromo-3-methylpyridin-2-yl)-4-fluoropyrrolidine-2-carboxamide], the IC50 is under 100 nM. On to `Nc1ncnc2c1c1ccccc1n2CC(=O)N1[C@@H]2C[C@@H]2C[C@H]1C(=O)Nc1cccc(Br)n1` [Compound 4b, (1R,3S,5R)-2-(2-(4-amino-9H-pyrimido[4,5-b]indol-9-yl)acetyl)-N-(6-bromopyridin-2-yl)-2-azabicyclo[3.1.0]hexane-3-carboxamide], for which the IC50 is under 100 nM. Turning to `Nc1ncnc2c1ccn2CC(=O)N1C[C@H](F)C[C@H]1C(=O)Nc1cccc(Br)n1` [Compound 5e, (2S,4R)-1-(2-(4-amino-7H-pyrrolo[2,3-d]pyrimidin-7-yl)acetyl)-N-(6-bromopyridin-2-yl)-4-fluoropyrrolidine-2-carboxamide], the IC50 is 100 to 1000 nM. Consider `Cc1ccc2c(c1)c1c(N)ncnc1n2CC(=O)N1[C@@H]2C[C@@H]2C[C@H]1C(=O)Nc1cccc(Br)n1` [Compound 6e, (1R,3S,5R)-2-(2-(4-amino-6-methyl-9H-pyrimido[4,5-b]indol-9-yl)acetyl)-N-(6-bromopyridin-2-yl)-2-azabicyclo[3.1.0]hexane-3-carboxamide], for which the IC50 was under 100 nM. As for `Cc1ccc2c(c1)c1c(N)ncnc1n2CC(=O)N1C[C@H](F)C[C@H]1C(=O)NCc1cccc(Cl)c1F` [Compound 7b, (2S,4R)-1-(2-(4-amino-6-methyl-9H-pyrimido[4,5-b]indol-9-yl)acetyl)-N-(3-chloro-2-fluorobenzyl)-4-fluoropyrrolidine-2-carboxamide], the figure is under 100 nM. Take `Cc1ccc2c(c1)c1c(N)ncnc1n2CC(=O)N1[C@H](C(=O)Nc2cccc(Br)n2)C[C@@]2(C)C[C@@H]12` [Compound 8b, (1R,3S,5R)-2-(2-(4-amino-6-methyl-9H-pyrimido[4,5-b]indol-9-yl)acetyl)-N-(6-bromopyridin-2-yl)-5-methyl-2-azabicyclo[3.1.0]hexane-3-carboxamide]: the IC50 was under 100 nM. As for `C[C@@]12C[C@@H](C(=O)Nc3cccc(Br)n3)N(C(=O)Cn3c4ccccc4c4c(N)ncnc43)[C@@H]1C2` [Compound 9a, (1R,3S,5R)-2-(2-(4-amino-9H-pyrimido[4,5-b]indol-9-yl)acetyl)-N-(6-bromopyridin-2-yl)-5-methyl-2-azabicyclo[3.1.0]hexane-3-carboxamide], the figure is under 100 nM; as for `Cc1ccc2c(c1)c1c(N)ncnc1n2CC(=O)N1[C@H](C(=O)Nc2nc(Br)ccc2C)C[C@@]2(C)C[C@@H]12` [Compound 10b, (1R,3S,5R)-2-(2-(4-amino-6-methyl-9H-pyrimido[4,5-b]indol-9-yl)acetyl)-N-(6-bromo-3-methylpyridin-2-yl)-5-methyl-2-azabicyclo[3.1.0]hexane-3-carboxamide], under 100 nM.

As to `Cc1ccc(Br)nc1NC(=O)[C@@H]1C[C@@]2(C)C[C@H]2N1C(=O)Cn1c2ccc(C(F)(F)F)cc2c2c(N)ncnc21` [Compound 11f, (1R,3S,5R)-2-(2-(4-amino-6-(trifluoromethyl)-9H-pyrimido[4,5-b]indol-9-yl)acetyl)-N-(6-bromo-3-methylpyridin-2-yl)-5-methyl-2-azabicyclo[3.1.0]hexane-3-carboxamide], the IC50 is under 100 nM. As to `Cc1ccc(Br)nc1NC(=O)[C@@H]1C[C@@]2(C)C[C@H]2N1C(=O)Cn1c2ccccc2c2c(N)ncnc21` [Compound 12a, (1R,3S,5R)-2-(2-(4-amino-9H-pyrimido[4,5-b]indol-9-yl)acetyl)-N-(6-bromo-3-methylpyridin-2-yl)-5-methyl-2-azabicyclo[3.1.0]hexane-3-carboxamide], the IC50 is under 100 nM. As for `Nc1ncnc2c1c1ccccc1n2CC(=O)N1CCC[C@H]1C(=O)Nc1cccc(Br)n1` [Compound 13b, (S)-1-(2-(4-amino-9H-pyrimido[4,5-b]indol-9-yl)acetyl)-N-(6-bromopyridin-2-yl)pyrrolidine-2-carboxamide], the figure is 100 to 1000 nM.

`Cc1ccc(Br)nc1NC(=O)[C@@H]1C[C@@H](F)CN1C(=O)Cn1c2ccc(C(F)(F)F)cc2c2c(N)ncnc21` [Compound 14a, (2S,4R)-1-(2-(4-amino-6-(trifluoromethyl)-9H-pyrimido[4,5-b]indol-9-yl)acetyl)-N-(6-bromo-3-methylpyridin-2-yl)-4-fluoropyrrolidine-2-carboxamide]: the 50% inhibitory concentration (IC50) was under 100 nM. Take `Cc1ccc(Br)nc1NC(=O)[C@@H]1C[C@H]2C[C@H]2N1C(=O)Cn1c2ccc(C(F)(F)F)cc2c2c(N)ncnc21` [Compound 15a, (1R,3S,5R)-2-(2-(4-amino-6-(trifluoromethyl)-9H-pyrimido[4,5-b]indol-9-yl)acetyl)-N-(6-bromo-3-methylpyridin-2-yl)-2-azabicyclo[3.1.0]hexane-3-carboxamide]: the IC50 was under 100 nM. As for `Nc1ncnc2c1c1ccc(C(F)(F)F)cc1n2CC(=O)N1[C@@H]2C[C@@H]2C[C@H]1C(=O)Nc1cccc(Br)n1` [Compound 16e, (1R,3S,5R)-2-(2-(4-amino-7-(trifluoromethyl)-9H-pyrimido[4,5-b]indol-9-yl)acetyl)-N-(6-bromopyridin-2-yl)-2-azabicyclo[3.1.0]hexane-3-carboxamide], the figure is under 100 nM.
